Source: US20180021315A1, “METHODS OF TREATING HEARING DISORDERS” (Wayne State University, priority 2016, published 2018)
“Also recorded” adds a separate entry of the source.

Tests used:
TNF-α = assay: Blast-induced TNF-α protein levels in auditory brain regions (ELISA and Western blot); format: in vivo, rat
Experimental: The therapeutic drug used was 3,6′-dithiothalidomide, which was synthesized according to a published procedure to greater than 99.8% chemical purity (Baratz et al., 2011; W. Luo et al., 2008). The drug was freshly prepared prior to each study. 3,6′-dithiothalidomide was prepared as a suspension in 1% carboxymethyl cellulose to provide a final concentration of 28 or 56 mg/kg (0.1 mL/10 g and 0.1 mL/100 g body weight injection in mice and rats, respectively), and was administered intraperitoneally (i.p.). These concentrations of 3,6′-dithiothalidomide are equimolar to 25 and 50 mg/kg of thalidomide.
(§1) Each of the rats was subjected to blast exposure in the left ear using a shock tube (ORA Inc.) located at the Wayne State University Bioengineering Center. The blast exposure of each rat was performed under anesthesia with a mixture of air (1 liter/min) and isoflurane (5% v/v). The rat was placed on supportive netting with a metal surround and secured on a pole with its head facing the oncoming shockwave. During blast exposure, the rat's right ear was occluded with a silicone earplug (Mack's; McKeon Products, Warren, Mich.), followed by application of mineral oil to seal any remaining openings. The average energy under 10 kHz measured at 22 psi was equivalent to 150 kPa or 197.5 dB SPL. After blast exposure, each rat was transferred to a polycarbonate cage.
Two exposed groups received either 56 mg/kg 3,6′-dithiothalidomide i.p. or vehicle for two days starting on the same day of the blast exposure. Another two exposed groups received 56 mg/kg 3,6′-dithiothalidomide i.p. or vehicle treatment for five days starting on the day of the blast exposure. Two more exposed groups received 56 mg/kg 3,6′-dithiothalidomide i.p. or vehicle treatment for five days starting on the fifth day after blast exposure. On the last day of the drug/vehicle injection, brain samples were collected. ELISA and Western blot was performed to determine the effects of blast and 3,6′-dithiothalidomide treatment on TNF-α protein levels.

blast-exposed rats = assay: Blast-induced tinnitus behavioral testing (gap detection and PPI, startle reflex), 3,6′-dithiothalidomide; format: in vivo, rat
Experimental: as §1
Thirty two rats from Example 10 were used. Behavioral tinnitus testing, including gap detection and PPI testing, was conducted with Hamilton-Kinder startle-reflex hardware and software. During behavioral testing, each rat was placed in an individual noise-attenuation chamber to perform gap and PPI testing. In the gap procedure, each rat was presented with a constant 60-dB SPL background noise composed of 2,000 Hz bandpass signals at 6-8, 10-12, 14-16, 18-20, or 26-28 kHz or broadband noise (BBN; 2-30 kHz). A 115 dB SPL, 50 ms noise-burst was used as the startle stimulus to induce the acoustic startle reflex. The background noise session contained two conditions, one condition was the startle only condition in which rat was presented with the startle stimulus alone, and the other condition was the gap condition in which a rat was presented with a startle stimulus preceded by a silent gap embedded within the background noise. Silent gaps were 40 ms in duration with a lead interval of 90 ms to the startle stimulus. The startle reflex of rats was measured in response to 3 conditions: 1) background noise alone, 2) startle only, and 3) gap. Detection of the gap results in a reduction in the startle amplitude. Development of tinnitus in a specific frequency band impairs gap detection in the corresponding gap-carrier band, and thus, the startle amplitude reaches amplitudes elicited without the gap. For the PPI procedure, the parameters were almost the same as with gap except that no background noise or silent gap was used. The startle amplitude of rats in response to the two conditions was measured: the startle-only condition and a prepulse followed by the startle stimulus. In the latter condition, a 60-dB SPL, 40-msec prepulse was introduced 90 msec before the startle stimulus. The acoustic startle reflex of the rat decreased in response to the prepulse except when the rat had hearing loss at a frequency similar to the prepulse.
Rats were exposed or sham-exposed to a blast shockwave. To determine whether TNF-α is involved in blast-induced tinnitus, the rats were injected once daily for 5 days with 3,6′-dithiothalidomide starting 7 days after blast exposure. Behavioral testing and ABR recordings started 1 day after drug injection and lasted for three weeks.

C75BL6 mice = assay: Noise-induced tinnitus, gap detection, 3,6′-dithiothalidomide; format: in vivo, mouse
Experimental: Tinnitus was assessed using the gap detection paradigm.
A group of C75BL6 mice underwent 4 days of gap detection testing. On the fifth day, the mice were exposed to 123-dB noise in their left ears for two hours, which was followed immediately by the administration of 3,6′-dithiothalidomide at a dose of 28 mg/kg. The drug was administered daily for five days. On day 10 post noise exposure, gap detection tests were resumed to test the animals' performance. Impaired gap detection compared to prenoise exposure performance is behavioral evidence of tinnitus.

O=C1NC(=S)CCC1N1C(=O)c2ccccc2C1=S (stereo not shown) [3,6′-dithiothalidomide]
TNF-α protein levels in AC, ELISA (TNF-α; blast-exposed rat AC, 56 mg/kg i.p., FIG. 10): reduced TNF-α protein levels | TNF-α protein levels in DCN, ELISA (TNF-α; blast-exposed rat DCN, 56 mg/kg i.p., FIG. 11): reduced TNF-α protein levels | TNF-α protein levels in IC, ELISA (TNF-α; blast-exposed rat IC, 56 mg/kg i.p., FIG. 12): reduced TNF-α protein levels | statistical significance of the reduction of TNF-α protein levels in IC (TNF-α; blast-exposed rat IC, FIG. 12): did not achieve statistical significance | translational/posttranslational increase in the TNF-α protein level (TNF-α; blast-exposed rats): cannot block such an increase | reduction in TNF-α protein levels in DCN vs corresponding vehicle group (TNF-α; group treated five days starting on the day of blast (5 Days), P<0.05): statistical significance | reduction in TNF-α protein levels in AC vs corresponding vehicle group (TNF-α; group treated five days starting on the fifth day after blast (10 Days), P<0.05): statistical significance | statistical significance of the reduction of TNF-α protein levels in AC and DCN (TNF-α; rat AC and DCN, vs vehicle, P<0.05): reached statistical significance; also recorded: significant reduction | TNF-α protein levels after blast exposure (TNF-α; rat AI, DCN and IC, 56 mg/kg i.p., 2, 5 and 10 days after blast, FIGS. 10-13): partially reduced TNF-α protein levels | startle force of the startle-only condition, gap test (blast-exposed rats; acute tinnitus rats, 56 mg/kg i.p., post drug vs post blast, FIG. 14A): recovered significantly | startle force of the startle-only condition, PPI test (blast-exposed rats; acute tinnitus rats, 56 mg/kg i.p., post drug vs post blast, FIG. 14B): recovered significantly | gap ratio values (gap/startle-only response) (blast-exposed rats; deficit at 7 days after blast, after 5 days of treatment, FIG. 15A): recovered significantly | PPI ratio values (PPI/startle-only response) (blast-exposed rats; deficit at 7 days after blast, after 5 days of treatment, FIG. 15B): recovered significantly | tinnitus score (blast-exposed rats; tinnitus 7 days after blast, after 5 days of treatment, FIG. 16A): recovered significantly | noise-induced tinnitus (startle-response ratio) (C75BL6 mice; 28 mg/kg, FIG. 25): prevents noise-induced tinnitus in mice | gap detection performance after noise exposure (C75BL6 mice; 123-dB noise 2 h, 28 mg/kg daily for five days, tested day 10 post exposure): not significantly altered
